Columns and labels:
[1] = tested on: rice (Oryza sativa); assay: Test B flooded paddy test, visual rating 0-100 (0 no effect, 100 complete control); details: Flood, 250 g ai/ha, applied to paddy water, rated after 13 to 15 days
[2] = tested on: ducksalad (Heteranthera limosa); assay: Test B flooded paddy test, visual rating 0-100; details: Flood, 250 g ai/ha, applied to paddy water, rated after 13 to 15 days
[3] = tested on: barnyardgrass (Echinochloa crus-galli); assay: Test A preemergence, visual injury rating 0-100 (0 no effect, 100 complete control); format: in vivo
[4] = tested on: ragweed (common ragweed, Ambrosia elatior); assay: Test A preemergence, visual injury rating 0-100; format: in vivo
[5] = tested on: ryegrass, Italian (Italian ryegrass, Lolium multiflorum); assay: Test A preemergence, visual injury rating 0-100; format: in vivo
[6] = tested on: kochia (Kochia scoparia); assay: Test A preemergence, visual injury rating 0-100; format: in vivo
[7] = tested on: foxtail, giant (giant foxtail, Setaria faberii); assay: Test A preemergence, visual injury rating 0-100; format: in vivo
[8] = tested on: pigweed (Amaranthus retroflexus); assay: Test A preemergence, visual injury rating 0-100; format: in vivo
[9] = tested on: galium (catchweed bedstraw, Galium aparine); assay: Test A postemergence, visual injury rating 0-100; format: in vivo; details: 0 to 100 scale
[10] = tested on: ragweed (common ragweed, Ambrosia elatior); assay: Test A postemergence, visual injury rating 0-100; format: in vivo; details: 0 to 100 scale
[11] = tested on: barnyardgrass (Echinochloa crus-galli); assay: Test A postemergence, visual injury rating 0-100; format: in vivo; details: 0 to 100 scale
[12] = tested on: blackgrass (Alopecurus myosuroides); assay: Test A postemergence, visual injury rating 0-100; format: in vivo; details: 0 to 100 scale
[13] = tested on: corn (Zea mays); assay: Test A postemergence, visual injury rating 0-100; format: in vivo; details: 0 to 100 scale
[14] = tested on: ryegrass, Italian (Italian ryegrass, Lolium multiflorum); assay: Test A postemergence, visual injury rating 0-100; format: in vivo; details: 0 to 100 scale
[15] = tested on: kochia (Kochia scoparia); assay: Test A postemergence, visual injury rating 0-100; format: in vivo; details: 0 to 100 scale
[16] = tested on: wheat (Triticum aestivum); assay: Test A postemergence, visual injury rating 0-100; format: in vivo; details: 0 to 100 scale
[17] = tested on: foxtail, giant (giant foxtail, Setaria faberii); assay: Test A postemergence, visual injury rating 0-100; format: in vivo; details: 0 to 100 scale
[18] = tested on: pigweed (Amaranthus retroflexus); assay: Test A postemergence, visual injury rating 0-100; format: in vivo; details: 0 to 100 scale
[19] = tested on: barnyardgrass (Echinochloa crus-galli); assay: Test B flooded paddy test, visual rating 0-100; details: Flood, 250 g ai/ha, applied to paddy water, rated after 13 to 15 days

CC1=[N+]([O-])C(C(=O)Nc2cccc(F)c2F)C(c2cc(C)ccc2C)C1 (racemic) [Compound 79]
Rice plant response rating (0 to 100 scale) [1]: 0
Ducksalad plant response rating (0 to 100 scale) [2]: 100
Barnyardgrass plant response rating (0 to 100 scale) ([3]; 125 g ai/ha): 90
Barnyardgrass plant response rating (0 to 100 scale) ([3]; 500 g ai/ha): 90
Ragweed plant response rating (0 to 100 scale) ([4]; 125 g ai/ha): 0
Ragweed plant response rating (0 to 100 scale) ([4]; 500 g ai/ha): 0
Ryegrass, Italian plant response rating (0 to 100 scale) ([5]; 125 g ai/ha): 30
Ryegrass, Italian plant response rating (0 to 100 scale) ([5]; 500 g ai/ha): 50
Kochia plant response rating (0 to 100 scale) ([6]; 125 g ai/ha): 0
Kochia plant response rating (0 to 100 scale) ([6]; 500 g ai/ha): 20
Foxtail, Giant plant response rating (0 to 100 scale) ([7]; 125 g ai/ha): 80
Foxtail, Giant plant response rating (0 to 100 scale) ([7]; 500 g ai/ha): 90
Pigweed plant response rating (0 to 100 scale) ([8]; 125 g ai/ha): 0
Pigweed plant response rating (0 to 100 scale) ([8]; 500 g ai/ha): 0
Galium plant response rating ([9]; 125 g ai/ha): 20
Galium plant response rating ([9]; 500 g ai/ha): 30
Ragweed plant response rating ([10]; 125 g ai/ha): 30
Ragweed plant response rating ([10]; 500 g ai/ha): 30
Barnyardgrass plant response rating ([11]; 125 g ai/ha): 70
Barnyardgrass plant response rating ([11]; 500 g ai/ha): 80
Blackgrass plant response rating ([12]; 125 g ai/ha): 20
Blackgrass plant response rating ([12]; 500 g ai/ha): 70
Corn plant response rating ([13]; 125 g ai/ha): 20
Corn plant response rating ([13]; 500 g ai/ha): 70
Ryegrass, Italian plant response rating ([14]; 125 g ai/ha): 0
Ryegrass, Italian plant response rating ([14]; 500 g ai/ha): 50
Kochia plant response rating ([15]; 125 g ai/ha): 0
Kochia plant response rating ([15]; 500 g ai/ha): 0
Wheat plant response rating ([16]; 125 g ai/ha): 20
Wheat plant response rating ([16]; 500 g ai/ha): 70
Foxtail, Giant plant response rating ([17]; 125 g ai/ha): 70
Foxtail, Giant plant response rating ([17]; 500 g ai/ha): 90
Pigweed plant response rating ([18]; 125 g ai/ha): 0
Pigweed plant response rating ([18]; 500 g ai/ha): 0
Barnyardgrass plant response rating (0 to 100 scale) [19]: 60

CC1=[N+]([O-])C(C(=O)Nc2cccc(F)c2F)C(c2cc(F)ccc2C)C1 (racemic) [Compound 81]
Rice plant response rating (0 to 100 scale) [1]: 0
Ducksalad plant response rating (0 to 100 scale) [2]: 100
Barnyardgrass plant response rating (0 to 100 scale) ([3]; 125 g ai/ha): 90
Barnyardgrass plant response rating (0 to 100 scale) ([3]; 500 g ai/ha): 90
Ragweed plant response rating (0 to 100 scale) ([4]; 125 g ai/ha): 0
Ragweed plant response rating (0 to 100 scale) ([4]; 500 g ai/ha): 0
Ryegrass, Italian plant response rating (0 to 100 scale) ([5]; 125 g ai/ha): 0
Ryegrass, Italian plant response rating (0 to 100 scale) ([5]; 500 g ai/ha): 10
Kochia plant response rating (0 to 100 scale) ([6]; 125 g ai/ha): 0
Kochia plant response rating (0 to 100 scale) ([6]; 500 g ai/ha): 50
Foxtail, Giant plant response rating (0 to 100 scale) ([7]; 125 g ai/ha): 60
Foxtail, Giant plant response rating (0 to 100 scale) ([7]; 500 g ai/ha): 90
Pigweed plant response rating (0 to 100 scale) ([8]; 125 g ai/ha): 0
Pigweed plant response rating (0 to 100 scale) ([8]; 500 g ai/ha): 20
Galium plant response rating ([9]; 125 g ai/ha): 0
Galium plant response rating ([9]; 500 g ai/ha): 30
Ragweed plant response rating ([10]; 125 g ai/ha): 0
Ragweed plant response rating ([10]; 500 g ai/ha): 0
Barnyardgrass plant response rating ([11]; 125 g ai/ha): 80
Barnyardgrass plant response rating ([11]; 500 g ai/ha): 80
Blackgrass plant response rating ([12]; 125 g ai/ha): 0
Blackgrass plant response rating ([12]; 500 g ai/ha): 50
Corn plant response rating ([13]; 125 g ai/ha): 20
Corn plant response rating ([13]; 500 g ai/ha): 20
Ryegrass, Italian plant response rating ([14]; 125 g ai/ha): 0
Ryegrass, Italian plant response rating ([14]; 500 g ai/ha): 20
Kochia plant response rating ([15]; 125 g ai/ha): 0
Kochia plant response rating ([15]; 500 g ai/ha): 0
Wheat plant response rating ([16]; 125 g ai/ha): 0
Wheat plant response rating ([16]; 500 g ai/ha): 30
Foxtail, Giant plant response rating ([17]; 125 g ai/ha): 60
Foxtail, Giant plant response rating ([17]; 500 g ai/ha): 80
Pigweed plant response rating ([18]; 125 g ai/ha): 0
Pigweed plant response rating ([18]; 500 g ai/ha): 0
Barnyardgrass plant response rating (0 to 100 scale) [19]: 25

CC1=[N+]([O-])C(C(=O)Nc2cccc(F)c2F)C(c2cc(C)nc(OC(F)F)c2)C1 (racemic) [Compound 83]
Rice plant response rating (0 to 100 scale) [1]: 0
Ducksalad plant response rating (0 to 100 scale) [2]: 75
Barnyardgrass plant response rating (0 to 100 scale) ([3]; 125 g ai/ha): 90
Barnyardgrass plant response rating (0 to 100 scale) ([3]; 500 g ai/ha): 90
Ragweed plant response rating (0 to 100 scale) ([4]; 125 g ai/ha): 10
Ragweed plant response rating (0 to 100 scale) ([4]; 500 g ai/ha): 90
Ryegrass, Italian plant response rating (0 to 100 scale) ([5]; 125 g ai/ha): 70
Ryegrass, Italian plant response rating (0 to 100 scale) ([5]; 500 g ai/ha): 90
Kochia plant response rating (0 to 100 scale) ([6]; 125 g ai/ha): 0
Kochia plant response rating (0 to 100 scale) ([6]; 500 g ai/ha): 50
Foxtail, Giant plant response rating (0 to 100 scale) ([7]; 125 g ai/ha): 90
Foxtail, Giant plant response rating (0 to 100 scale) ([7]; 500 g ai/ha): 90
Pigweed plant response rating (0 to 100 scale) ([8]; 125 g ai/ha): 60
Pigweed plant response rating (0 to 100 scale) ([8]; 500 g ai/ha): 90
Galium plant response rating ([9]; 125 g ai/ha): 60
Galium plant response rating ([9]; 500 g ai/ha): 70
Ragweed plant response rating ([10]; 125 g ai/ha): 30
Ragweed plant response rating ([10]; 500 g ai/ha): 70
Barnyardgrass plant response rating ([11]; 125 g ai/ha): 80
Barnyardgrass plant response rating ([11]; 500 g ai/ha): 90
Blackgrass plant response rating ([12]; 125 g ai/ha): 70
Blackgrass plant response rating ([12]; 500 g ai/ha): 80
Corn plant response rating ([13]; 125 g ai/ha): 70
Corn plant response rating ([13]; 500 g ai/ha): 90
Ryegrass, Italian plant response rating ([14]; 125 g ai/ha): 60
Ryegrass, Italian plant response rating ([14]; 500 g ai/ha): 80
Kochia plant response rating ([15]; 125 g ai/ha): 30
Kochia plant response rating ([15]; 500 g ai/ha): 50
Wheat plant response rating ([16]; 125 g ai/ha): 60
Wheat plant response rating ([16]; 500 g ai/ha): 80
Foxtail, Giant plant response rating ([17]; 125 g ai/ha): 80
Foxtail, Giant plant response rating ([17]; 500 g ai/ha): 90
Pigweed plant response rating ([18]; 125 g ai/ha): 30
Pigweed plant response rating ([18]; 500 g ai/ha): 80
Barnyardgrass plant response rating (0 to 100 scale) [19]: 80

CC1=[N+]([O-])C(C(=O)Nc2cccc(F)c2F)C(c2cc(F)c(F)c(Oc3ncc(F)cn3)c2)C1 (racemic) [Compound 85]
Rice plant response rating (0 to 100 scale) [1]: 0
Ducksalad plant response rating (0 to 100 scale) [2]: 0
Barnyardgrass plant response rating (0 to 100 scale) ([3]; 125 g ai/ha): 80
Barnyardgrass plant response rating (0 to 100 scale) ([3]; 500 g ai/ha): 100
Ragweed plant response rating (0 to 100 scale) ([4]; 125 g ai/ha): 0
Ragweed plant response rating (0 to 100 scale) ([4]; 500 g ai/ha): 0
Ryegrass, Italian plant response rating (0 to 100 scale) ([5]; 125 g ai/ha): 60
Ryegrass, Italian plant response rating (0 to 100 scale) ([5]; 500 g ai/ha): 90
Kochia plant response rating (0 to 100 scale) ([6]; 125 g ai/ha): 0
Kochia plant response rating (0 to 100 scale) ([6]; 500 g ai/ha): 10
Foxtail, Giant plant response rating (0 to 100 scale) ([7]; 125 g ai/ha): 80
Foxtail, Giant plant response rating (0 to 100 scale) ([7]; 500 g ai/ha): 100
Pigweed plant response rating (0 to 100 scale) ([8]; 125 g ai/ha): 50
Pigweed plant response rating (0 to 100 scale) ([8]; 500 g ai/ha): 0
Galium plant response rating ([9]; 125 g ai/ha): 20
Galium plant response rating ([9]; 500 g ai/ha): 30
Ragweed plant response rating ([10]; 125 g ai/ha): 0
Ragweed plant response rating ([10]; 500 g ai/ha): 0
Barnyardgrass plant response rating ([11]; 125 g ai/ha): 40
Barnyardgrass plant response rating ([11]; 500 g ai/ha): 80
Blackgrass plant response rating ([12]; 125 g ai/ha): 60
Blackgrass plant response rating ([12]; 500 g ai/ha): 80
Corn plant response rating ([13]; 125 g ai/ha): 60
Corn plant response rating ([13]; 500 g ai/ha): 90
Ryegrass, Italian plant response rating ([14]; 125 g ai/ha): 0
Ryegrass, Italian plant response rating ([14]; 500 g ai/ha): 60
Kochia plant response rating ([15]; 125 g ai/ha): 0
Kochia plant response rating ([15]; 500 g ai/ha): 0
Wheat plant response rating ([16]; 125 g ai/ha): 50
Wheat plant response rating ([16]; 500 g ai/ha): 90
Foxtail, Giant plant response rating ([17]; 125 g ai/ha): 60
Foxtail, Giant plant response rating ([17]; 500 g ai/ha): 80
Pigweed plant response rating ([18]; 125 g ai/ha): 0
Pigweed plant response rating ([18]; 500 g ai/ha): 0
Barnyardgrass plant response rating (0 to 100 scale) [19]: 0

Source: patent US11498899B2, “Nitrone herbicides” (FMC Corporation, priority 2016, dated 2022)
